In patent US12090164B2, “Genotype-agnostic rescue of cystic fibrosis with small molecule bicarbonate channels” (The Board of Trustees of the University of Illinois, priority 2017, dated 2024):
Entries after “also recorded” stand apart in the source; their conditions may differ.

How the values were obtained:
[1] = test system: CuFi-1 epithelia; experiment: ASL height by confocal microscopy; format: cell-based, human
Procedure: ASL height was studied using an established fluorescent dye assay (60, 61). Small diameter NuLi and CuFi-1 cultured epithelia were used for this experiment (0.33 cm^2). 24 hours prior to the start of experiment, the apical side of all cultured epithelia was rinsed three times with warm PBS to remove excess mucus. NuLi epithelia were treated with perfluorocarbon (FC-72) vehicle or 500 µM basolateral bumetanide in DMSO vehicle applied to the media, and CuFi epithelia were treated with 20 μL vehicle, 0.005, 0.5, or 50 μM AmB, or 0.5 μM C35deOAmB suspended in perfluorocarbon (FC-72, Sigma), with or without 500 μM basolateral bumetanide in DMSO vehicle applied to the media and incubated for 24 hours at 37° C. After 24 hours, 2.5 μL of a 2 mg/mL 70 kDa Texas Red-dextran conjugate (Molecular Probes) solution in PBS was added to the apical side of the epithelia, followed by 100 μL of FC-770 to prevent evaporation. Then the culture support was placed on top of 100 μL of PBS on a 10 mm glass bottom Fluorodish for imaging (World Precision Instruments). Epithelia were imaged immediately after dye addition and again at 24 hours to examine dye absorption. Three Z-stack images per membrane were taken on an Zeiss LSM700 confocal microscope at 40× oil immersion. These images were analyzed using ImageJ (62) to determine the average ASL height in the center 1300 pixels of each image. Images were smoothed, converted to 8-bit, and thresholded to most accurately represent the red area. The parameters for Analyze Particles were particles from 1-Infinity μm^2 in size and from 0%-100% circularity. Height was determined by dividing the area output in pixels by the known 1300 pixel width and converted to microns using the known scaling factor of 0.49 µm/pixel.

[2] = test system: CuFi-1 (ΔF508/ΔF508) epithelia; experiment: Basolateral to apical H14CO3- transport; format: cell-based, human; settings: AmB 2 μM basolateral
[3] = test system: yeast; settings: cited from earlier work

C[C@@H]1[C@H](O)[C@@H](C)/C=C/C=C/C=C/C=C/C=C/C=C/C=C/[C@H](O[C@@H]2O[C@H](C)[C@@H](O)[C@H](N)[C@@H]2O)C[C@@H]2O[C@](O)(C[C@@H](O)C[C@@H](O)[C@H](O)CC[C@@H](O)C[C@@H](O)CC(=O)O[C@H]1C)C[C@H](O)[C@H]2C(=O)O [AmB, amphotericin B]
ASL height, basolateral AmB [1]: did not increase ASL height | ASL height, apical addition ([1]; 0.5 μM): increased ASL height in CuFi-1 epithelia to match that of NuLi epithelia; also recorded: increases ASL height | basolateral to apical H^14CO3^− transport, basolateral addition of AmB [2]: did not; also recorded: caused no increase ASL ^14C bicarbonate; also recorded: did not raise ASL pH or increase H^14CO3^− secretion | toxicity / fungicidal activity to yeast [3]: highly toxic to yeast
